# Assay results: patent US20020032226A1, “Novel form of an oxazole compound” (priority 2000, published 2002)
# Columns and labels:
# [1] = Comparative dissolution of crystalline Form B and amorphous compound; assay type: physicochemical; details: 150 mg in 900 mL, 37° C., paddle speed 100 rpm, particle size 212-425 μm, HPLC
# Description: Dissolution rates for the crystalline compound having Form B and the amorphous compound were determined and compared in two media: water and simulated intestinal fluid (SIF) minus pancreatin.
# Initial materials were sieved and material with a particle size between 212 and 425 μm was used for the study. A 150 mg sample was added to 900 mL of fluid in a dissolution bath. A temperature of 37° C. and a paddle speed of 100 rpm were used for the dissolution. Samples were pulled at specific time points (5, 15, 30 120, and 240 min) and filtered through a 0.2 μm nylon filter. Samples were analyzed by HPLC.
# COX-2 = target: T1, COX-2 (Homo sapiens, UniProt P35354); experiment: in vitro activity of COX-2; assay type: biochemical
# T1 sequence (P35354 18-604): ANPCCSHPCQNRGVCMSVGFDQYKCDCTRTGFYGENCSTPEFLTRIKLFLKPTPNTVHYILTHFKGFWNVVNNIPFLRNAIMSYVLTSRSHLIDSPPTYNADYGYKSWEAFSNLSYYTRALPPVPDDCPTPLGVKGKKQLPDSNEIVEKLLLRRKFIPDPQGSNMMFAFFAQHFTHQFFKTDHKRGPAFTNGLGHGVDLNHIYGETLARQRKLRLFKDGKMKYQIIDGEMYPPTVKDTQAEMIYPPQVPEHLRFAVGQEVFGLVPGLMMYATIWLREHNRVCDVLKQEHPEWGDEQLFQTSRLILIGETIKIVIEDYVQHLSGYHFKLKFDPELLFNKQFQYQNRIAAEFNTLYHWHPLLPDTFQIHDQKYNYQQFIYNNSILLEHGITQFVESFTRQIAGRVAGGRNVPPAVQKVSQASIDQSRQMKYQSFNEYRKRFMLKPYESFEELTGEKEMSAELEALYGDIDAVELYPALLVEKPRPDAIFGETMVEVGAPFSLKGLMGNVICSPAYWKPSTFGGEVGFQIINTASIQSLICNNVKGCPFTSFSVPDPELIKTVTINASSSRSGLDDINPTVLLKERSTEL
# [2] = heat stability to withstand spray drying; assay type: physicochemical; details: temperature range of from about 40° C. to about 100° C.
SMILES,dissolution rate in simulated intestinal fluid (SIF) minus pancreatin [1],dissolution rate in water [1],inhibits in vitro activity of COX-2 (COX-2),heat stability [2]
"Cc1nc(C2CCCCC2)c(-c2ccc(S(N)(=O)=O)c(F)c2)o1 [crystalline compound having Form B, 5-(4-aminosulfonyl-3-fluorophenyl)-4-cyclohexyl-2-methyloxazole]",significantly slower dissolution rate than the amorphous form,significantly slower dissolution rate than the amorphous form,–,–
"Cc1nc(C2CCCCC2)c(-c2ccc(S(N)(=O)=O)c(F)c2)o1 [amorphous compound, 5-(4-aminosulfonyl-3-fluorophenyl)-4-cyclohexyl-2-methyloxazole]",dissolved more rapidly,dissolved more rapidly,nanomolar range,–
Cc1nc(C2CCCCC2)c(-c2ccc(S(N)(=O)=O)c(F)c2)o1 [5-(4-aminosulfonyl-3-fluorophenyl)-4-cyclohexyl-2-methyloxazole],–,–,–,sufficient heat stability
